Earlier results in US7196084B2, “Cdc25 phosphatase inhibitors” (Societe de Conseils de Recherches et d'Applications …, priority 2000, dated 2007).

Experiments:
[1] = biological target: T1, cdc25-A (Homo sapiens, UniProt P30304); settings: read-out: inhibition constant (Ki) on cdc25-A; cited from earlier work
T1 sequence (P30304 1-524): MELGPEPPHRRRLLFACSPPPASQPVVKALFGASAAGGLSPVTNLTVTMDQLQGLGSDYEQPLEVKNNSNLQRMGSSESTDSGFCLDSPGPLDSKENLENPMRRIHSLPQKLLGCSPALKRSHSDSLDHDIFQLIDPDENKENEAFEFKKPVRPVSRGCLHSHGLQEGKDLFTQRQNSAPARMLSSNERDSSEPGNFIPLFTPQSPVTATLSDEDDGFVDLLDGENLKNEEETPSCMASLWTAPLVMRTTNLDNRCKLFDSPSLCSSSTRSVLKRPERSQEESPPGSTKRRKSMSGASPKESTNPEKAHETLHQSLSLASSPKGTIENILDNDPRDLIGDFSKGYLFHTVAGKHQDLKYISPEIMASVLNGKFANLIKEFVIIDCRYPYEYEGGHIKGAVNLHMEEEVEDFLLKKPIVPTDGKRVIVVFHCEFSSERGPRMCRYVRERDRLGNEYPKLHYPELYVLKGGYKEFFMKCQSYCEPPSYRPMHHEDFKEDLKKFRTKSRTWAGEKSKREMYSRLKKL

[2] = biological target: T2, cdc25-C (Homo sapiens, UniProt P30307); settings: read-out: inhibition constant (Ki) on cdc25-C; cited from earlier work
T2 sequence (P30307 1-473): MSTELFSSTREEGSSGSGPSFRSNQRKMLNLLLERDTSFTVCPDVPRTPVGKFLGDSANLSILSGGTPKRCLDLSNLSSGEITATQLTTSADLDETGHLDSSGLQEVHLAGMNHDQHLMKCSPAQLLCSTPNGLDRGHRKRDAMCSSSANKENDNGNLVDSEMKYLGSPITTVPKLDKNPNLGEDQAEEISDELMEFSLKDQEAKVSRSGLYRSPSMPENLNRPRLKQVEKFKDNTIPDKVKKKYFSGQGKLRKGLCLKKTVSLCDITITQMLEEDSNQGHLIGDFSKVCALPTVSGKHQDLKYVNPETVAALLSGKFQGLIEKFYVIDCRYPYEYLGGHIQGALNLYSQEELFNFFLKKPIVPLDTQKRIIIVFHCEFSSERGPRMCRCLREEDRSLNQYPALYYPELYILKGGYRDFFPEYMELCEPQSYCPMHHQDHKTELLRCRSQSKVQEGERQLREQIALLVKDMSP

[3] = biological target: T3, cdc25-B2 (Homo sapiens, UniProt P30305); settings: read-out: inhibition constant (Ki) on cdc25-B2; cited from earlier work
T3 sequence (P30305 1-539 isoform P30305-3): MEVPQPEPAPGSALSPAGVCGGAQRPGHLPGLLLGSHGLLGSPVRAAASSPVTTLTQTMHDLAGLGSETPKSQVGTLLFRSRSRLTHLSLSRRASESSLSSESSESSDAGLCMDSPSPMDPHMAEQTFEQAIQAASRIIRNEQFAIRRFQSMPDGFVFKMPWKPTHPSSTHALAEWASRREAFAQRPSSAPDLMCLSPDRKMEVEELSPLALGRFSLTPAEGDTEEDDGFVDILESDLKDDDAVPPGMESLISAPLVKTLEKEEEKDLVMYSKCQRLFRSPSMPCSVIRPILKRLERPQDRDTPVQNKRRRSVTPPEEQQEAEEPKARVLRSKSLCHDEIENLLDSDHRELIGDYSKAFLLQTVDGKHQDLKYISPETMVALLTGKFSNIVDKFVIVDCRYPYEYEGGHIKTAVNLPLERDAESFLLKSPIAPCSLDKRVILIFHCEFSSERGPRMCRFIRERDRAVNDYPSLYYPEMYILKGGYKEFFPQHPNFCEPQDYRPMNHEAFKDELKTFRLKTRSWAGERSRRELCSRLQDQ

## CC1=C(SCCO)C(=O)c2ccccc2C1=O [Cpd5]
[1]
  Ki: 15 µM
[2]
  Ki: 1.3 µM
[3]
  Ki: 1.7 µM
